The values below come from patent publication US9427400B2, “Platinum-catalyzed intravaginal rings” (International Partnership for Microbicides, priority 2013, dated 2016).

SMILES strings stand for the structures. In brackets after ≈: the same amount, converted by molar mass. Where two headings read alike, the source gives them in different places. Bounds are passed on as bounds.

For data set [1], the system named is wild-type HIV-1 strains and HIV-1 strains harboring different resistance-inducing mutations. To be noted: wild-type and resistance-mutant strains; cited from earlier work.
Data set [2] in a line: Solubility profile of dapivirine. It counts as physicochemical. To be noted: for solubility: read-out: Solubility Profile (Low Solubility). The method, then:
As used herein, the term “dapivirine” refers to (4-[[4-[(2,4,6-trimethylphenyl)amino]-2-pyrimidinyl]amino]benzonitrile), a non-nucleoside reverse transcriptase inhibitor. Dapivirine is useful in the prevention and/or treatment of retroviral infection, such as HIV-1 infection. It is a crystalline compound that is white to slightly beige in color, has a melting point of about 220° C. and is virtually insoluble in water. More specifically, the solubility of dapivirine is less than 0.001 mg/gm of water (i.e., less than 1 μg/ml of water). The intravaginal rings of the instant invention may use micronized dapivirine.

Data set [3] is described as follows: Log P (n-octanol and buffer). It counts as physicochemical. To be noted: at pH 9.0.

By solubility is commonly meant the dissolved amount per volume that the medium holds. Usually logP stands for the decadic logarithm of the partition coefficient of the neutral form, usually between octanol and water.

Take `Cc1cc(C)c(Nc2ccnc(Nc3ccc(C#N)cc3)n2)c(C)c1` [dapivirine, 4-[[4-[(2,4,6-trimethylphenyl)amino]-2-pyrimidinyl]amino]benzonitrile]: the “activity against HIV-1 strains” value in data set [1] is “potent activity”. The solubility in data set [2] (0.1N HCl, simulated gastric fluid) was 280 µg/mL (≈ 850 µM); in data set [2] (water), above 1 µg/mL. In addition, the “Solubility Profile (Low Solubility)” value was “PEG 400 = 47.4 mg/g” in data set [2] (PEG 400) and “Propylene Glycol = 2.69 mg/g” in data set [2] (Propylene Glycol). In data set [3], the lipophilicity (logP) was 5.27.
